Tests used:
[1] = system: rabbit jugular vein ring segments; experiment: Maximal contractile response of vein rings in vascular smooth muscle bath; type: cell-based; details: for Maximal Physiological Responses, Control: fresh vein rings (n = 15); for Maximal Physiological Responses, Control / Maximal Physiological Responses, Vitrified: Mean ± SEM; for Maximal Physiological Responses, % of corresponding fresh controls: vein rings vitrified with VS55 versus fresh vein rings; for Maximal Physiological Responses, Vitrified: vein rings vitrified with vitrification solution VS55 (n = 26)
Experimental: Vein rings, which are about 4 mm long segments of rabbit external jugular veins, are vitrified in VS55 by the method described above for longer external jugular vein segments, except that perfusion is not used. […] The baseline tension of all vein rings is adjusted to 0.25 to 0.75 g. Changes in tension are recorded by force transducers. After 1 hour of equilibration, the vein rings are pretested with potassium chloride for contraction. After rinsing with KH solution, the vein rings are equilibrated for another 30 minutes prior to the start of experiment. During a relaxation experiment, contraction of the vein rings is produced by 10^−6M norepinephrine and, after the contractile response plateaus, cumulative concentrations of acetylcholine (10^−10M to 10^−4M) are added to the bathing medium to induce the endothelium dependent relaxation response. In the current study, histamine, bradykinin, angiotensin II, and norepinephrine are tested in rabbit jugular vein ring segments vitrified with VS55 and fresh vein rings. Both histamine and bradykinin produce contraction in the vein via their local receptors. Norepinephrine acts directly on the adrenoceptor, while angiotensin II binds to AT receptors and acts through local renin-angiotensin systems.

artery ring segments = experiment: Maximal contractile response of artery rings; type: cell-based; details: for Maximal Physiological Responses, Vitrified: artery rings vitrified with VS55 (norepinephrine n = 37, phenylephrine n = 23); for Maximal Physiological Responses, Vitrified / Maximal Physiological Responses, Control: Mean ± SEM; for Maximal Physiological Responses, % of corresponding fresh controls: artery rings vitrified with VS55 versus fresh controls; for Maximal Physiological Responses, Control: fresh rings (norepinephrine n = 16, phenylephrine n = 12)
Experimental: Vein rings, which are about 4 mm long segments of rabbit external jugular veins, are vitrified in VS55 by the method described above for longer external jugular vein segments, except that perfusion is not used. After being rewarmed, the vein rings are mounted between two stainless steel wire hooks and suspended in a vascular smooth muscle bath containing 5 ml of Krebs Henseleit (KH) solution, which is gassed continuously with 95% O2 and 5% CO2 at 37° C. The baseline tension of all vein rings is adjusted to 0.25 to 0.75 g. Changes in tension are recorded by force transducers. After 1 hour of equilibration, the vein rings are pretested with potassium chloride for contraction. After rinsing with KH solution, the vein rings are equilibrated for another 30 minutes prior to the start of experiment. During a relaxation experiment, contraction of the vein rings is produced by 10^−6M norepinephrine and, after the contractile response plateaus, cumulative concentrations of acetylcholine (10^−10M to 10^−4M) are added to the bathing medium to induce the endothelium dependent relaxation response.
Artery rings are vitrified in VS55 by the method described above for vein rings. After being rewarmed, norepinephrine and phenylephrine are tested in artery ring segments vitrified with VS55 and fresh artery rings.

Compound | Maximal Physiological Responses, Control [1] [g] | Maximal Physiological Responses, % of corresponding fresh controls [1] [%] | Maximal Physiological Responses, Vitrified [1] [g] | Maximal Physiological Responses, Vitrified (artery ring segments) [g] | Maximal Physiological Responses, % of corresponding fresh controls (artery ring segments) [%] | Maximal Physiological Responses, Control (artery ring segments) [g]
angiotensin II (DRVYIHPF; Angiotensin-2; UniProt P01019 25-32, looked up) | 0.58 ± 0.06 | 84.5 | 0.49 ± 0.09 |  |  | 
NCCc1c[nH]cn1 [Histamine, histamine] | 1.78 ± 0.19 | 87.1 | 1.55 ± 0.27 |  |  | 
NC[C@H](O)c1ccc(O)c(O)c1 [Norepinephrine, norepinephrine] | 0.99 ± 0.12 | 83.8 | 0.83 ± 0.14 | 2.58 ± 0.23 | 90.8 | 2.84 ± 0.38
CNC[C@H](O)c1cccc(O)c1 [Phenylephrine, phenylephrine] |  |  |  | 2.23 ± 0.29 | 88.3 | 2.53 ± 0.45
